From US8604206B2, “Compositions for preventing and/or treating degenerative disorders of the central nervous system” (Amicus Therapeutics, Inc., priority 2009, dated 2013)

Experiments:
GCase [1] = target: GCase (Mus musculus, UniProt P17439); assay: GCase enhancement in tissues of orally dosed mice; type: in vivo; conditions: 9 doses over 2 weeks
Description: The ability of orally administered test compounds ((3R,4R,5S)-5-(difluoromethyl)piperidine-3,4-diol, (3R,4R,5S)-5-(1-fluoroethyl)piperidine-3,4-diol, (3R,4R,5S)-5-((R)-1-fluoropropyl)piperidine-3,4-diol hydrochloride, or (3R,4R,5S)-5-benzylpiperidine-3,4-diol) to elevate GCase levels was assessed in mice. For this purpose, 8-week old wild-type male mice (C57BL/6) were administered a […] p.o. (gavage) dose of a compound of the present invention (i.e., (3R,4R,5S)-5-(difluoromethyl)piperidine-3,4-diol, (3R,4R,5S)-5-(1-fluoroethyl)piperidine-3,4-diol, (3R,4R,5S)-5-((R)-1-fluoropropyl)piperidine-3,4-diol hydrochloride, or (3R,4R,5S)-5-benzylpiperidine-3,4-diol). The dosing solutions were prepared in water. Compounds were administered over 2 weeks as follows: week 1, Mon-Fri (On), Sat-Sun (Off); week 2, Mon-Thu (On); necropsy on Friday. Thus, a total of 9 doses (dosing solutions prepared fresh every day) were given to each mouse, with a 24-hour washout between the last dose and necropsy.
Plasma was collected by spinning blood at 2700 g for 10 minutes at 4° C. Liver, spleen, lung, and brain tissues were removed, washed in cold PBS, blotted dry, flash frozen on dry ice, and stored at −80° C. until analysis. GCase levels were measured by homogenizing approximately 50 mg tissue in 500 μL McIlvane (MI) buffer (100 mM sodium citrate, 200 mM sodium phosphate dibasic, 0.25% sodium taurocholate, and 0.1% Triton X-100, pH 5.2) at pH 5.2 for 3-5 seconds on ice with a micro homogenizer. Homogenates were then incubated at room temperature without and with 2.5 mM conduritol-B-epoxide (CBE) for 30 min. Finally, 3.7 mM 4-methylumbeliferryl-β-glucoside (4-MUG) substrate was added and incubated at 37° C. for 60 min. […] Fluorescence was measured on a plate reader for 1 sec/well using 355 nm excitation and 460 nm emission. Total protein was determined in lysates using the MicroBCA kit according to the manufacturer's instructions. A 4-methylumbelliferone (4-MU) standard curve ranging from 1.0 nM to 50 μM was run in parallel for conversion of raw fluorescence data to absolute GCase activity (in the presence and absence of CBE) and expressed as nanomoles of 4-MU released per milligram of protein per hour (nmol/mg protein/hr). GCase levels and protein levels were calculated using Microsoft Excel (Redmond, Wash.) and GraphPad Prism version 4.02.

[2] = Blood brain barrier penetration, plasma and brain levels after oral administration; type: in vivo, mouse; conditions: mice, single 30 mg/kg (free base equivalent) p.o.
Description: For this purpose, 8-week old wild-type male mice (C57BL/6) were administered a single 30 mg/kg (free base equivalent) p.o. dose of reference or test compound by gavage (n=3 mice per time point). Dosing solutions were prepared in water. After dosing, mice were euthanized with CO2 at the following time points: 0-, 0.5-, 1-, and 4-hour post-dose. […] Similarly, brains were collected from each mouse. Plasma was derived by spinning whole blood at 2,700×g for 10 minutes at 4° C. followed by storage on dry ice. Whole brains were washed in cold PBS to remove contaminating blood, blotted dry, flash frozen on dry ice, and ultimately stored at −80° C. until analysis. To prepare brain samples for analysis, 50-100 mg of tissue was homogenized in […] of water/mg tissue. Samples were then clarified by centrifugation. Next, 25 μl of the brain homogenate supernatant or 25 μl of plasma were combined with 25 μl of acetonitrile:water (95/5). […] Samples were again clarified by centrifugation and 75 μl of the supernatant was combined with 75 μl of acetonitrile. Samples were then analyzed for compound levels by LC-MS/MS at PPD Inc. (3230 Deming Way, Middleton, Wis. 53562). In brief, a Thermo Betasil, Silica-100, 50×3 mm, 5μ column equilibrated with a mixture of mobile phase consisting of 5 mM ammonium formate and 0.05% formic acid in (A) 95:5 acetonitrile:water or (B) 70:20:10 methanol:water:acetonitrile was employed. Between 20 and 30 μl sample was injected for analysis. For calculating drug concentrations, raw data for plasma (ng/mL) and brain (ng/g) was converted to nM using the molecular weight of respective compounds and assuming 1 g of tissue is equivalent to 1 mL volume. Concentration as a function of time was plotted in GraphPad Prism version 4.02.

lysosomal GCase = lysosomal GCase (Homo sapiens (Human), UniProt P04062); assay: In situ lysosomal GCase inhibition and washout assay in fibroblasts from a normal subject; type: cell-based
Description: The effect of the novel compounds of the present invention on lysosomal GCase activity was assayed in situ using fibroblasts established from a normal subject. Cells seeded in 48-well plates were incubated with the indicated concentrations of compound for 16-24 hours. For the dose-response assays, cells were incubated with the in situ substrate 5-(pentafluorobenzoylamino)fluorescein di-β-D-glucopyranoside (PFBFDβGlu) for 1 hour and subsequently lysed to determine the extent of substrate hydrolysis in the presence of compound. […] Inhibition was determined as the ratio of activity in the presence of compound to that in the absence of compound. […] Cells were washed extensively and incubated in drug-free medium to allow net compound efflux from cells. Cells were then tested for lysosomal GCase activity at 2 hour intervals over a total period of 8 hours following compound removal. The increase in activity over time was fitted with a single exponential function to determine the compound's washout time.

GCase [3] = target: GCase (Homo sapiens (Human), UniProt P04062); assay: GCase activity enhancement (EC50, Emax) of Table 2B; type: cell-based; conditions: compared to reference compound IFG-tartrate
Rat pharmacokinetics = type: in vivo; conditions: listed as (3R,4R,5S)-5-(1-fluoroethyl)piperidine-3,4-diol-HCl
Description: Pharmacokinetic (PK) data was obtained in rats to assess the bioavailability of test compound. In particular, the following PK parameters were calculated: bioavailability as measured by area under the Concentration/Time curve (AUC), fraction of dose available (% F; further defined below), clearance (CL), volume of distribution (Vd), and half-life (t½). […] Three rats were used per dosing group. Blood was collected over a 24-hr period. The time points for blood collection after intravenous administration were: 0, 2.5, 5, 10, 15, 30, 45 min, 1, 2, 4, 8, 12, and 24 hrs; time points for blood collection after p.o. administrations were: 0, 5, 15, 30, 45 min, 1, 2, 3, 4, 8, 12, and 24 hrs. Plasma samples were analyzed for compound levels by LC-MS/MS at PPD. Raw data was analyzed by non-compartmental analysis in Win-nonLin to calculate VD, % F, CL, and t1/2.

Chain of GCase (Mus musculus, UniProt P17439) (P17439 20-515 limits assumed): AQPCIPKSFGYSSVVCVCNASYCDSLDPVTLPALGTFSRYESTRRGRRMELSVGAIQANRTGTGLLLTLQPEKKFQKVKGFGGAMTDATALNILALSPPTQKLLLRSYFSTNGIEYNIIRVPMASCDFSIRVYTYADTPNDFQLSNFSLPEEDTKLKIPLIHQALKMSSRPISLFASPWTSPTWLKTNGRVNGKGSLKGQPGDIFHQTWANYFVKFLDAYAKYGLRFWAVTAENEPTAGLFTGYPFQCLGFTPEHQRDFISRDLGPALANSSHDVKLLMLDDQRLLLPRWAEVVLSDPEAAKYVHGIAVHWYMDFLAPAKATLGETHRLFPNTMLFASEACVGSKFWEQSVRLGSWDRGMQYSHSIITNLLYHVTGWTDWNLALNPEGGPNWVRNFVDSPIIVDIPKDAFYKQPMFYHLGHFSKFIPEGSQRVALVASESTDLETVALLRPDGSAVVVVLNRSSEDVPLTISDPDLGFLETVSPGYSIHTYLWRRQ
Chain of lysosomal GCase (P04062 40-536): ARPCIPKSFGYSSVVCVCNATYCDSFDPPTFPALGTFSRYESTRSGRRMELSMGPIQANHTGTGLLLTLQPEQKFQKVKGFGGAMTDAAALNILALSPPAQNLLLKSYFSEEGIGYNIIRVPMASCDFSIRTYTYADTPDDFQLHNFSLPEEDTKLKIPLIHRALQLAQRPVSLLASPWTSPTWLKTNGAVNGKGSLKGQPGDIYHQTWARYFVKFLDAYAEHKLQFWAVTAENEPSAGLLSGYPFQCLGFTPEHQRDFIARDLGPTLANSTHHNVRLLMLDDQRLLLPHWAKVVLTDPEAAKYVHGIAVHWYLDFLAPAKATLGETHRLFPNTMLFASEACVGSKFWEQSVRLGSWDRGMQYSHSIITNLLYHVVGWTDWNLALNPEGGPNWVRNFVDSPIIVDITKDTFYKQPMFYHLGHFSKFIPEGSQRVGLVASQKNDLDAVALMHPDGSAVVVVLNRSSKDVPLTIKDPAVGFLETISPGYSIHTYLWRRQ
Chain of GCase (Homo sapiens (Human), UniProt P04062) (P04062 40-536): as above

For `CC(F)[C@H]1CNC[C@@H](O)[C@@H]1O` (single isomer, unassigned), the “GCase increase (fold)” value (GCase [1]; brain, 10 mg/kg FBE p.o., 24-hour washout) was 1.5 fold, the “GCase enhancement in brain and spleen” value (GCase [1]; mice, p.o.) was “significant GCase enhancement in brain and spleen” and the “blood brain barrier crossing compared to IFG-tartrate” value [2] was “crossed the blood brain barrier more readily as compared to IFG-tartrate”. The “levels detected in brain compared to IFG-tartrate” value [2] was “higher levels”, the “inhibition of GCase activity” value (lysosomal GCase) was “inhibited GCase activity” and the “in situ washout from the lysosomal compartment compared to IFG-tartrate” value (lysosomal GCase; compared to reference compound IFG-tartrate) was “considerably faster than reference compound IFG-tartrate”. For the same compound, the “increase in GCase activity compared to IFG-tartrate” value (GCase [3]) was “enhanced enzyme activity to the same maximum level as reference compound IFG-tartrate at much lower concentration”, the “AUClast (hr*ng/ml), AUC0-24 hr” value (Rat pharmacokinetics; IV, 3 mg/kg free base) was 1370 ± 109 ng·h/mL and the “CL” value (Rat pharmacokinetics; IV, 3 mg/kg free base) was 36.47 ± 2.88 mL/min/kg. The “Cmax” value (Rat pharmacokinetics; IV, 3 mg/kg free base) was 2427 ± 192 ng/mL, the “VD” value (Rat pharmacokinetics; IV, 3 mg/kg free base) was 6.304 ± 0.927 L/kg and the “t1/2” value (Rat pharmacokinetics; IV, 3 mg/kg free base) was 2.06 ± 0.47 h. The “AUClast (hr*ng/ml), AUC0-24 hr” value (Rat pharmacokinetics; PO, 10 mg/kg free base) was 4251 ± 88 ng·h/mL, the “t1/2” value (Rat pharmacokinetics; PO, 10 mg/kg free base) was 3.0 ± 0.22 h and the “AUClast (hr*ng/ml), AUC0-24 hr” value (Rat pharmacokinetics; PO, 30 mg/kg free base) was 14229 ± 127 ng·h/mL. For the same compound, the “Cmax” value (Rat pharmacokinetics; PO, 30 mg/kg free base) was 4680 ± 369 ng/mL, the “AUClast (hr*ng/ml), AUC0-24 hr” value (Rat pharmacokinetics; PO, 100 mg/kg free base) was 50946 ± 713 ng·h/mL and the “Cmax” value (Rat pharmacokinetics; PO, 100 mg/kg free base) was 15733 ± 622 ng/mL. For the same compound, the “t1/2” value (Rat pharmacokinetics; PO, 100 mg/kg free base) was 2.4 ± 0.16 h.
